# Molecular target: ITK enzyme (ITK FL, N-Flag and C-His tagged) (Homo sapiens (Human), UniProt Q08881)
# Experiment: ITK enzyme assay (IL-2-inducible T-cell kinase activity)
# Format: biochemical
# Settings: geometric mean of count n
# Procedure: IL-2-Inducible T-Cell Kinase (ITK) Activity, IC50 (nM)
# ITK activity was determined by measuring the effect of a test compound in an ITK enzyme assay.
# 1.0 M HEPES Buffer pH 7.5 solution was prepared as follows: 238.3 g HEPES free acid (Sigma) and 800 mL of water were combined, and the mixture was stirred until complete dissolution. The pH was adjusted to 7.5 via titration with 5N NaOH and the volume adjusted to 1000 mL. The solution was filtered and sterilized.
# ITK assay buffer was prepared as follows: 50 mL of HPLC-grade water was treated with 2 mL of 1.0 M HEPES Buffer, 500 μL of 2% Gelatin (Sigma), 1.0 mL of aqueous MgCl2 solution (1.0 M), and 1.0 mL of aqueous glutathione solution (0.5 M), and the solution was mixed. The solution was brought to 99 mL in a graduated cylinder by addition of water and sterilized through a 0.2 μm filter. 0.1 mL of Brij-35™ Surfact-Amps™ Detergent Solution (10% w/v aqueous solution, ThermoFisher) and 1.0 mL of ATP (Teknova, 100 mM) were added and the solution was mixed.
# The resulting solution was stored on ice. 30 Minutes prior to use, the enzyme solution was removed from ice and equilibrated to RT by incubation in a RT water bath.
# Preparation of 4×ITK substrate solution was as follows: 50 mL of ITK assay buffer was treated with 100 μL of BTK peptide (China Peptide Company, 2 mM stock solution in DMSO). The tube was capped, mixed by gently inverting the tube, and then stored on ice. 30 Minutes prior to use, the substrate solution was removed from ice and equilibrated to RT by incubation in a RT water bath.
# At the time of assay, 7.5 μL of the 1.33×ITK enzyme solution was added to plate wells containing 0.1 μL of varying concentrations of test compound in DMSO. The plate was incubated 30 min at RT. The plate wells were each treated with 2.5 uL of the 4×ITK substrate solution and the plate was sealed (TopSeal™, Perkin Elmer). The plate was spun at 1000 rpm for 30 sec and then incubated for 60 min at RT. The seal was removed, and each well was treated with 10 μL of Stop/Detect Buffer (20 mM HEPES pH 7.5, 0.01% gelatin, 1 nM LANCE PT66 (Perkin Elmer), 16.5 μg/ml Surelight APC (Perkin Elmer), 10 mM EDTA, 250 mM NaCl). The plate was again covered and was spun at 1000 rpm for 30 seconds. The plate was allowed to incubate overnight at RT and in a closed carrier to reduce dehydration. The seal was removed, and the fluorescence was read with a plate reader with an excitation wavelength of […] and an emission wavelength of 615 nm.
# Chain of ITK enzyme (ITK FL, N-Flag and C-His tagged) (Q08881 whole entry): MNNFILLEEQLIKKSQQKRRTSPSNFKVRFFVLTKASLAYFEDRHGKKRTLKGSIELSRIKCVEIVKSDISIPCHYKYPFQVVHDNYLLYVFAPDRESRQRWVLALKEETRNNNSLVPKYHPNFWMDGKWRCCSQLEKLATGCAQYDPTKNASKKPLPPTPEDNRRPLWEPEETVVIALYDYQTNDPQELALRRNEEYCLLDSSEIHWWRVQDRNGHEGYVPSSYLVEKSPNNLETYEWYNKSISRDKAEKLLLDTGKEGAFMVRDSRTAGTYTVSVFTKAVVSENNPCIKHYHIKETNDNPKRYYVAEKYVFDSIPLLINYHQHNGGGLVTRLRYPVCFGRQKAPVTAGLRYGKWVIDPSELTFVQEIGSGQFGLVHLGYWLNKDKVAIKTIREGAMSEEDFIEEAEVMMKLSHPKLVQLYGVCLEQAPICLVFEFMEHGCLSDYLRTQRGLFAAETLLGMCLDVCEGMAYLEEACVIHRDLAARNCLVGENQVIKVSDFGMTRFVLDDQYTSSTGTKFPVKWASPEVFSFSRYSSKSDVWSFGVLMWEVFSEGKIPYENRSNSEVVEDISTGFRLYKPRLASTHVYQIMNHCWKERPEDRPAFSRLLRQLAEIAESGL
row,SMILES,IC50 [µM]
1,"C[C@@H](C(=O)N(C)c1cc(C(F)(F)F)c2[nH]c(-c3n[nH]c4c3C[C@@H]3C[C@]3(C)C4)nc2c1)N1CCOCC1 [Example 41, (S)—N-methyl-N-(2-((4aS,5aR)-5a-methyl-1,4,4a,5,5a,6-hexahydrocyclopropa[f]indazol-3-yl)-7-(trifluoromethyl)-1H-benzo[d]imidazol-5-yl)-2-morpholinopropanamide]",0.034
2,"Cc1c(F)c(N(C)C(=O)[C@H](C)N2CCOCC2)cc2nc(-c3n[nH]c4c3C[C@@H]3C[C@]3(C)C4)[nH]c12 [Example 47, (S)—N-(6-fluoro-7-methyl-2-((4aS,5aR)-5a-methyl-1,4,4a,5,5a,6-hexahydrocyclopropa[f]indazol-3-yl)-1H-benzo[d]imidazol-5-yl)-N-methyl-2-morpholinopropanamide]",0.029
3,"Cc1cc2[nH]c(-c3n[nH]c4c3C[C@@H]3C[C@]3(C)C4)nc2cc1N(C)C(=O)CN1C[C@@H](C)O[C@H](C)C1 [Example 32, 2-((2R,6R)-2,6-Dimethylmorpholino)-N-methyl-N-(6-methyl-2-((4aS,5aR)-5a-methyl-1,4,4a,5,5a,6-hexahydrocyclopropa[f]indazol-3-yl)-1H-benzo[d]imidazol-5-yl)acetamide]",0.016
4,"COc1cc(N(C)C(=O)[C@H](C)N2CCOCC2)cc2nc(-c3n[nH]c4c3C[C@@H]3C[C@]3(C)C4)[nH]c12 [Example 40, (S)—N-(7-methoxy-2-((4aS,5aR)-5a-methyl-1,4,4a,5,5a,6-hexahydrocyclopropa[f]indazol-3-yl)-1H-benzo[d]imidazol-5-yl)-N-methyl-2-morpholinopropanamide]",0.019
5,"CCc1cc(N(C)C(=O)[C@H](C)N2CCOCC2)cc2nc(-c3n[nH]c4c3C[C@@H]3C[C@]3(C)C4)[nH]c12 [Example 44, (S)—N-(7-ethyl-2-((4aS,5aR)-5a-methyl-1,4,4a,5,5a,6-hexahydrocyclopropa[f]indazol-3-yl)-1H-benzo[d]imidazol-5-yl)-N-methyl-2-morpholinopropanamide]",0.028
6,"CN(C(=O)CC1CCOCC1)c1cc2nc(-c3n[nH]c4c3C[C@@H]3C[C@]3(C)C4)[nH]c2cc1C#N [Example 54, N-(6-cyano-2-((4aS,5aR)-5a-methyl-1,4,4a,5,5a,6-hexahydrocyclopropa[f]indazol-3-yl)-1H-benzo[d]imidazol-5-yl)-N-methyl-2-(tetrahydro-2H-pyran-4-yl)acetamide]",0.272
7,"Cc1cc2[nH]c(-c3n[nH]c4c3C[C@@H]3C[C@]3(C)C4)nc2cc1N(C)C(=O)CN1CCOC(CO)C1 (stereo partly drawn) [Example 27, 2-(2-(Hydroxymethyl)morpholino)-N-methyl-N-(6-methyl-2-((4aS,5aR)-5a-methyl-1,4,4a,5,5a,6-hexahydrocyclopropa[f]indazol-3-yl)-1H-benzo[d]imidazol-5-yl)acetamide]",0.017
8,"C[C@@H](C(=O)N(C)c1cc(C(F)F)c2[nH]c(-c3n[nH]c4c3C[C@@H]3C[C@]3(C)C4)nc2c1)N1CCOCC1 [Example 48, (S)—N-(7-(difluoromethyl)-2-((4aS,5aR)-5a-methyl-1,4,4a,5,5a,6-hexahydrocyclopropa[f]indazol-3-yl)-1H-benzo[d]imidazol-5-yl)-N-methyl-2-morpholinopropanamide]",0.017
9,"Cc1cc2[nH]c(-c3n[nH]c4c3C[C@@H]3C[C@]3(C)C4)nc2cc1N(C)C(=O)CN1CCO[C@@H](CO)C1 [Example 28, 2-((R)-2-(Hydroxymethyl)morpholino)-N-methyl-N-(6-methyl-2-((4aS,5aR)-5a-methyl-1,4,4a,5,5a,6-hexahydrocyclopropa[f]indazol-3-yl)-1H-benzo[d]imidazol-5-yl)acetamide]",0.019

# These reach a lower IC50. Values come first.
row,IC50 [µM],SMILES
1,0.005,"Cc1cc2[nH]c(-c3n[nH]c4c3C[C@@H]3C[C@]3(C)C4)nc2cc1N(C)C(=O)C(C)C1CCOCC1 (stereo partly drawn) [Example 5, N-methyl-N-(6-methyl-2-((4aS,5aR)-5a-methyl-1,4,4a,5,5a,6-hexahydrocyclopropa[f]indazol-3-yl)-1H-benzo[d]imidazol-5-yl)-2-(tetrahydro-2H-pyran-4-yl)propanamide]"
2,0.002,"Cc1cc(N(C)C(=O)[C@H](C)N2CCOCC2)cc2nc(-c3n[nH]c4c3C[C@@H]3C(F)(F)[C@]3(C)C4)[nH]c12 [Example 51, (S)—N-(2-((4aS,5aR)-5,5-difluoro-5a-methyl-1,4,4a,5,5a,6-hexahydrocyclopropa[f]indazol-3-yl)-7-methyl-1H-benzo[d]imidazol-5-yl)-N-methyl-2-morpholinopropanamide]"
3,0.013,"CCN(C(=O)[C@H](C)N1CCOCC1)c1cc2nc(-c3n[nH]c4c3C[C@@H]3C[C@]3(C)C4)[nH]c2c(F)c1F [Example 25, (S)—N-(6,7-difluoro-2-((4aS,5aR)-5a-methyl-1,4,4a,5,5a,6-hexahydrocyclopropa[f]indazol-3-yl)-1H-benzo[d]imidazol-5-yl)-N-ethyl-2-morpholinopropanamide]"
4,0.007,"C[C@@H](C(=O)N(C)c1cc(C#N)c2[nH]c(-c3n[nH]c4c3C[C@@H]3C[C@]3(C)C4)nc2c1)N1CCOCC1 [Example 38, (S)—N-(7-cyano-2-((4aS,5aR)-5a-methyl-1,4,4a,5,5a,6-hexahydrocyclopropa[f]indazol-3-yl)-1H-benzo[d]imidazol-5-yl)-N-methyl-2-morpholinopropanamide]"
5,0.004,"C[C@@H](C(=O)N(C)c1cc(F)c2[nH]c(-c3n[nH]c4c3C[C@@H]3C[C@]3(C)C4)nc2c1)N1CCOCC1 [Example 15, (S)—N-(7-fluoro-2-((4aS,5aR)-5a-methyl-1,4,4a,5,5a,6-hexahydrocyclopropa[f]indazol-3-yl)-1H-benzo[d]imidazol-5-yl)-N-methyl-2-morpholinopropanamide]"
6,0.015,"Cc1cc2[nH]c(-c3n[nH]c4c3C[C@@H]3C[C@]3(C)C4)nc2cc1N(C)C(=O)CN1CCO[C@H](C)C1 [Example 30, N-Methyl-N-(6-methyl-2-((4aS,5aR)-5a-methyl-1,4,4a,5,5a,6-hexahydrocyclopropa[f]indazol-3-yl)-1H-benzo[d]imidazol-5-yl)-2-((R)-2-methylmorpholino)acetamide]"
7,0.005,"C[C@@H](C(=O)N(C)c1cc(C#N)c2[nH]c(-c3n[nH]c4c3C[C@@H]3C[C@]3(C)C4)nc2c1)C1CCOCC1 [Example 55, (R)—N-(7-cyano-2-((4aS,5aR)-5a-methyl-1,4,4a,5,5a,6-hexahydrocyclopropa[f]indazol-3-yl)-1H-benzo[d]imidazol-5-yl)-N-methyl-2-(tetrahydro-2H-pyran-4-yl)propanamide]"
8,0.001,"C[C@@H](C(=O)N(C)c1ccc2[nH]c(-c3n[nH]c4c3C[C@@H]3C(F)(F)[C@]3(C)C4)nc2c1)N1CCOCC1 [Example 13, (S)—N-(2-((4aS,5aR)-5,5-difluoro-5a-methyl-1,4,4a,5,5a,6-hexahydrocyclopropa[f]indazol-3-yl)-1H-benzo[d]imidazol-5-yl)-N-methyl-2-morpholinopropanamide]"
9,0.005,"C[C@@H](C(=O)N(C)c1cc2nc(-c3n[nH]c4c3C[C@@H]3C[C@]3(C)C4)[nH]c2cc1F)N1CCOCC1 [Example 17, (S)—N-(6-fluoro-2-((4aS,5aR)-5a-methyl-1,4,4a,5,5a,6-hexahydrocyclopropa[f]indazol-3-yl)-1H-benzo[d]imidazol-5-yl)-N-methyl-2-morpholinopropanamide]"
10,0.009,"C[C@@H](C(=O)N(C)c1cc2nc(-c3n[nH]c4c3C[C@@H]3C[C@]3(C)C4)[nH]c2cc1C#N)N1CCOCC1 [Example 21, (S)—N-(6-cyano-2-((4aS,5aR)-5a-methyl-1,4,4a,5,5a,6-hexahydrocyclopropa[f]indazol-3-yl)-1H-benzo[d]imidazol-5-yl)-N-methyl-2-morpholinopropanamide]"
11,0.011,"Cc1cc2[nH]c(-c3n[nH]c4c3C[C@@H]3C[C@]3(C)C4)nc2cc1N(C)C(=O)CN1C[C@H](C)O[C@@H](C)C1 [Example 33, 2-((2S,6S)-2,6-Dimethylmorpholino)-N-methyl-N-(6-methyl-2-((4aS,5aR)-5a-methyl-1,4,4a,5,5a,6-hexahydrocyclopropa[f]indazol-3-yl)-1H-benzo[d]imidazol-5-yl)acetamide]"
12,0.008,"C[C@@H](C(=O)N(C)c1cc2nc(-c3n[nH]c4c3C[C@@H]3C[C@]3(C)C4)[nH]c2c(F)c1F)N1CCOCC1 [Example 24, (S)—N-(6,7-difluoro-2-((4aS,5aR)-5a-methyl-1,4,4a,5,5a,6-hexahydrocyclopropa[f]indazol-3-yl)-1H-benzo[d]imidazol-5-yl)-N-methyl-2-morpholinopropanamide]"
